Test results as given in patent US20190038650A1, “COMPOSITIONS AND METHODS FOR THE TREATMENT OF ATHEROSCLEROSIS AND HEPATOSTEATOSIS AND OTHER DISEASES” (priority 2016, published 2019).

Assays:
[1] = tested on: Mice fed a Western diet; test: Steatosis / body composition in mice fed a Western diet; assay type: in vivo
Procedure: Mice were fed a Western diet in combination with saline, sucrose or trehalose. The saline, sucrose or trehalose was administered orally and IP. Oral administration was provided in the cage water supply at 2% w/v in water (w/v=weight/volume). Additionally, 2 grams trehlose/kg mouse weight was injected IP. IP injection was 3 times/week. […] It was then determined if this significant reduction in body mass was due to fat mass or lean mass. […] (FIG. 2B). It was then determined the location of the increase in fat mass via tissue weights. […] Finally, the amount of liver triglycerides was measured in each group.

[2] = orally and intravenously, doses substantially higher than the intended therapeutic dose; cited from earlier work
[3] = oral; cited from earlier work
[4] = Trehalose tolerance test, serum trehalose in trehalase knockout mice; assay type: in vivo; conditions: trehalose IP 1 g/kg, trehalase knockout mice versus control mice
Procedure: To determine if inhibition of trehalase could enhance the efficacy of trehalose, a trehalase knockout mouse was generated. Control mice and trehalase knockout mice were then administered trehalose IP at 1 g/kg. Of 12 chimeric founders, a trehalose tolerance test was performed on n=3 non-targeted controls and n=5 chimeric mice. […] The serum concentration of trehalose at 30 minutes post-administration was measured.

[5] = tested on: Mice fed a Western diet; test: Insulin tolerance test; assay type: in vivo; conditions: compared to saline and sucrose, FIG. 3
Procedure: Additionally, an insulin tolerance test was performed in the presence of saline, sucrose or trehalose.

[6] = tested on: ApoE deficient mice; test: Atherosclerotic lesion size in ApoE deficient mice fed a Western diet; assay type: in vivo; conditions: trehalose oral and IP, 2 months post-treatment, relative to vehicle
Procedure: ApoE deficient mice were fed a Western diet with and without treatment with trehalose. Trehalose was administered oral and IP. At 2 months post-treatment the presence of atherosclerosis was evaluated.

[7] = cited from earlier work

OC[C@H]1O[C@H](O[C@H]2O[C@H](CO)[C@@H](O)[C@H](O)[C@H]2O)[C@H](O)[C@@H](O)[C@@H]1O [trehalose]
lean mass ([1]; FIG. 2B): not lean mass | liver triglycerides ([1]; FIG. 2D): significant reduction in liver triglycerides | body mass ([1]; Western diet, oral 2% w/v in water plus 2 g/kg IP 3 times/week, at 13-16 weeks): significantly decreased body mass | fat mass ([1]; at 16 weeks, relative to saline or sucrose): significant reduction in fat mass | subcutaneous (subQ) fat mass ([1]; tissue weights, FIG. 2C): reduction of fat mass in the subcutaneous (subQ) fat | tissue mass in the liver ([1]; tissue weights, FIG. 2C): significant reduction in tissue mass in the liver | safety and toxicity [2]: found to be safe | ingested trehalose absorbed into the blood stream [3]: Less than 0.5% | trehalose not absorbed into the blood stream [3]: Over 99.5% | serum concentration of trehalose at 30 minutes post-administration [4]: significantly higher serum levels of trehalose | insulin resistance (insulin tolerance test) [5]: less insulin resistance was observed | atherosclerotic lesion size [6]: significantly reduced atherosclerotic lesion size | oral amount that may cause diarrhea and bloating [7]: 40-50 gram per day | oral amount that frequently causes diarrhea, bloating and discomfort ([7]; humans): higher than 50 g a day
